# Read-outs that look alike come from different tables or passages of the source. Where a SMILES comes first, the peptide text is derived from it. Side-chain parts run from the residue outwards. [ ]: non-standard residue; d: D form. The star is where a group is joined. DOTA = O=C(O)CN1CCN(CC(=O)O)CCN(CC(=O)*)CCN(CC(=O)O)CC1; dTyr(3-I) = N[C@H](Cc1ccc(O)c(I)c1)C(=O)O; 2Nal = N[C@@H](Cc1ccc2ccccc2c1)C(=O)O; dNMeOrn = CN[C@H](CCCN)C(=O)O; 4Abz = Nc1ccc(C(=O)O)cc1
# Experiment: Biodistribution in Daudi xenograft bearing mice
# Type: in vivo, mouse
# Settings: female, CB-17 SCID, mouse, iv, total radioactivity, means ± SD; for tissue uptake at 6 h: 6h p.i.; for tissue uptake at 48 h / tissue to tissue ratio at 48 h: 48h p.i.; for tissue to tissue ratio at 48 h: n=4-5 animals
# Procedure: The biodistribution of selected compounds was investigated in Daudi (human B-cell lymphoma) xenograft bearing female CB-17 SCID mice (6-8 weeks, Charles River, Sulzfeld, Germany), [29]. All animal experiments were performed in accordance with current animal welfare regulations in Germany (approval #55.2-1-54-2532-71-13).
# Animals (n=4-5 per group) were injected intravenously with 5-10 MBq (0.08-0.11 nmol peptide per mouse) of the respective ^68Ga- and^ 177Lu-labeled CXCR4 ligands in PBS (100 µL) into the tail vein under isoflurane anesthesia. CXCR4-specificity of binding was determined by coinjection of 50 µg AMD3100 per mouse. The animals were sacrificed 1, 6 and 48h post injection (p.i.), and the organs of interest were dissected. The radioactivity was measured in weighted tissue samples using a γ-counter. Data are expressed in % ID/g tissue (mean ± SD).
# [1] = adrenals, i.v., n=4-5, read-out: Biodistribution adrenals
# [2] = blood, i.v., n=4-5, read-out: Biodistribution blood
# [3] = colon, i.v., n=4-5, read-out: Biodistribution colon
# [4] = femur, i.v., n=4-5, read-out: Biodistribution femur
# [5] = heart, i.v., n=4-5, read-out: Biodistribution heart
# [6] = kidney, i.v., n=4-5, read-out: Biodistribution kidney
# [7] = liver, i.v., n=4-5, read-out: Biodistribution liver
# [8] = lung, i.v., n=4-5, read-out: Biodistribution lung
# [9] = muscle, i.v., n=4-5, read-out: Biodistribution muscle
# [10] = pancreas, i.v., n=4-5, read-out: Biodistribution pancreas
# [11] = small intestine, i.v., n=4-5, read-out: Biodistribution small intestine
# [12] = spleen, i.v., n=4-5, read-out: Biodistribution spleen
# [13] = stomach, i.v., n=4-5, read-out: Biodistribution stomach
# [14] = tumor (Daudi xenograft), i.v., n=4-5, read-out: Biodistribution tumor (Daudi xenograft)
smiles,measurement,setting,value
"C[C@@H](NC(=O)[C@@H](CCCNC(=N)N)NC(=O)CN1CCN(CC(=O)O)CCN(CC(=O)O)CCN(CC(=O)O)CC1)C(=O)Nc1ccc(C(=O)NCCC[C@@H]2C(=O)N[C@@H](CCCNC(=N)N)C(=O)N[C@@H](Cc3ccc4ccccc4c3)C(=O)NCC(=O)N[C@H](Cc3ccc(O)c(I)c3)C(=O)N2C)cc1 [[^177Lu]DOTA-r-a-ABA-iodoCPCR4, metal not drawn] (cyclo([2Nal]G[dTyr(3-I)][dNMeOrn]([4Abz-dA-dR-DOTA])R))",tissue uptake at 6 h,[1],0.68 ± 0.21 %ID/g
same,tissue uptake at 48 h,[1],0.6 ± 0.12 %ID/g
same,tissue uptake at 6 h,[2],0.17 ± 0.09 %ID/g
same,tissue uptake at 48 h,[2],0.03 ± 0.01 %ID/g
same,tissue uptake at 1 h,"brain, 1h p.i., tracer only, i.v., γ-counter, n=4-5, read-out: Biodistribution brain",0.08 ± 0.01 %ID/g
same,tissue uptake at 6 h,[3],0.49 ± 0.2 %ID/g
same,tissue uptake at 48 h,[3],0.43 ± 0.3 %ID/g
same,tissue uptake at 6 h,[4],0.56 ± 0.23 %ID/g
same,tissue uptake at 48 h,[4],0.34 ± 0.08 %ID/g
same,tissue uptake at 6 h,[5],0.28 ± 0.05 %ID/g
same,tissue uptake at 48 h,[5],0.19 ± 0.02 %ID/g
same,tissue uptake at 6 h,[6],3.2 ± 0.45 %ID/g
same,tissue uptake at 48 h,[6],2.58 ± 0.69 %ID/g
same,tissue uptake at 6 h,[7],17.1 ± 3.09 %ID/g
same,tissue uptake at 48 h,[7],14.6 ± 2 %ID/g
same,tissue uptake at 6 h,[8],1.07 ± 0.26 %ID/g
same,tissue uptake at 48 h,[8],0.57 ± 0.04 %ID/g
same,tissue uptake at 6 h,[9],0.06 ± 0.01 %ID/g
same,tissue uptake at 48 h,[9],0.04 %ID/g
same,tissue uptake at 6 h,[10],0.11 ± 0.02 %ID/g
same,tissue uptake at 48 h,[10],0.09 ± 0.01 %ID/g
same,tissue uptake at 6 h,[11],0.24 ± 0.06 %ID/g
same,tissue uptake at 48 h,[11],0.16 ± 0.06 %ID/g
same,tissue uptake at 6 h,[12],2.95 ± 0.75 %ID/g
same,tissue uptake at 48 h,[12],2.72 ± 0.5 %ID/g
same,tissue uptake at 6 h,[13],0.25 ± 0.09 %ID/g
same,tissue uptake at 48 h,[13],0.14 ± 0.02 %ID/g
same,tissue uptake at 6 h,[14],12.5 ± 2.56 %ID/g
same,tissue uptake at 48 h,[14],8.11 ± 0.96 %ID/g
same,tissue to tissue ratio at 48 h,"tumor / blood, read-out: Tumor/organ ratio t/blood",320 ± 104
same,tissue to tissue ratio at 48 h,"tumor / colon, read-out: Tumor/organ ratio t/colon",19 ± 13
same,tissue to tissue ratio at 48 h,"tumor / heart, read-out: Tumor/organ ratio t/heart",42 ± 7
same,tissue to tissue ratio at 48 h,"tumor / kidney, read-out: Tumor/organ ratio t/kidney",3.1 ± 0.9
same,tissue to tissue ratio at 48 h,"tumor / liver, read-out: Tumor/organ ratio t/liver",0.6 ± 0.1
same,tissue to tissue ratio at 48 h,"tumor / lung, read-out: Tumor/organ ratio t/lung",14 ± 2
same,tissue to tissue ratio at 48 h,"tumor / muscle, read-out: Tumor/organ ratio t/muscle",226 ± 36
same,tissue to tissue ratio at 48 h,"tumor / small intestine, read-out: Tumor/organ ratio t/small intestine",50 ± 20
same,tissue to tissue ratio at 48 h,"tumor / spleen, read-out: Tumor/organ ratio t/spleen",3 ± 0.7
same,tissue to tissue ratio at 48 h,"tumor / stomach, read-out: Tumor/organ ratio t/stomach",58 ± 12

# Source: article PMC7381729, “A new class of PentixaFor- and PentixaTher-based theranostic agents with enhanced CXCR4-targeting efficiency” (Theranostics, 2020)
